Measured values reported in publication PMC11868595, “Safety, pharmacokinetics and efficacy of HA121-28 in patients with advanced solid tumors and RET fusion-positive non-small-cell lung cancer: a multicenter, open-label, single-arm phase 1/2 trial” (Signal Transduction and Targeted Therapy, 2025).
Where two headings read alike, the source gives them in different places.

Columns and labels:
[1] = test system: RET fusion-positive NSCLC; experiment: Tumor response by RECIST 1.1 (ORR, DCR, DOR, PFS), phase 1/2; assay type: in vivo, human; details: for Best response: Complete response / Best response: Not evaluable / Best response: Partial response / Best response: Progressive disease / Best response: Stable disease: ERS, investigator-assessed RECIST 1.1; for PFS: patient with previous RET-TKI treatment
Protocol: Treatment-emergent adverse events (TEAEs) were documented during the entire study period. The predefined adverse event of special interest (AESI) was ≥ grade 3 prolonged QT interval. Tumor imaging was performed using contrast-enhanced computed tomography or magnetic resonance imaging at screening, Day 28 of the first cycle, then approximately every eight weeks till the end of the study for phase 1; in phase 2, imaging was scheduled at screening, and every eight weeks during the first 40 weeks, followed by every 12 weeks for the rest of the study period. RECIST 1.1 was used by the independent review committee or investigators for assessment of tumor response. After the original assessment, a repeated assessment was required around four weeks later to confirm a complete or partial response.
The primary endpoints of phase 1 were to investigate the MTD, dose-limiting toxicities, and the incidence and severity of TEAEs. Each TEAE was graded according to the Common Terminology Criteria for Adverse Events (CTCAE, version 5.0) and coded by Medical Dictionary for Regulatory Activities (MedDRA, version 21.0). The secondary endpoints included calculating PK parameters, assessing the ORR and DCR at the recommended dose by investigators as per RECIST 1.1. The exploratory endpoint was PFS.
The primary endpoint of phase 2 was the independent review committee evaluated ORR using RECIST 1.1. The secondary endpoints included investigators assessed ORR; DCR, PFS, and DOR by the independent review committee and investigators; overall survival and TEAEs. Each TEAE was graded according to CTCAE version 5.0 and coded by MedDRA (version 24.0). The phase 2 trial is ongoing; not all endpoints are reported in this paper.
The full analysis set consisted of all patients who had administered at least one dose of HA121-28 and was used to calculate the baseline characteristics, OS, and PFS results. The safety set included all patients who had administered at least one dose of the HA121-28 and had at least one safety-related observation. This population was used for analysis of TEAEs. The efficacy evaluable set consisted of patients who had administered at least one dose of HA121-28 and completed at least one efficacy assessment following study treatment. This population was used to calculate the ORR, DOR, and DCR. In addition, the ORRs for subgroup analyses, including age ( < 60, ≥60), ECOG PS (0 or 1), gender (male or female), prior treatment with TKIs (yes or no), brain or liver metastasis (yes or no), were also calculated. The plasma drug concentration-time profile was characterized using PK concentration set that included patients who had administered at least one dose of HA121-28 and had at least one measurable plasma concentration of HA121-28. The PK parameter set was used to calculate PK parameters, which consisted of patients who had administered at least one dose of HA121-28 with at least one valid PK parameter. ORR and DCR were described using the Clopper-Pearson method with two-sided 95% confidence intervals (CIs). PFS and DOR were assessed using the Kaplan-Meier method, including an estimate of the median, along with corresponding 95% CIs. Statistical analyses of clinical outcomes were conducted by SAS (version 9.4 or later) and R software 4.1.0 for genomic DNA from pre-treatment tumor tissue (http://cran.r-project.org).

HT29 cells = experiment: Tumor cell proliferation in vitro; assay type: cell-based
BEL-7402 cells = experiment: Tumor cell proliferation in vitro; assay type: cell-based; details: BEL-7402
MDA-MB-231 cells = experiment: Tumor cell proliferation in vitro; assay type: cell-based
[2] = test system: arterial ring angiogenesis; experiment: Rat arterial ring angiogenesis
Plasma protein binding = assay type: in vitro ADME; details: mice
FLT3 = FLT3 (Homo sapiens, UniProt P36888); experiment: Tyrosine kinase inhibition; assay type: biochemical
Sequence of FLT3 (P36888 27-993): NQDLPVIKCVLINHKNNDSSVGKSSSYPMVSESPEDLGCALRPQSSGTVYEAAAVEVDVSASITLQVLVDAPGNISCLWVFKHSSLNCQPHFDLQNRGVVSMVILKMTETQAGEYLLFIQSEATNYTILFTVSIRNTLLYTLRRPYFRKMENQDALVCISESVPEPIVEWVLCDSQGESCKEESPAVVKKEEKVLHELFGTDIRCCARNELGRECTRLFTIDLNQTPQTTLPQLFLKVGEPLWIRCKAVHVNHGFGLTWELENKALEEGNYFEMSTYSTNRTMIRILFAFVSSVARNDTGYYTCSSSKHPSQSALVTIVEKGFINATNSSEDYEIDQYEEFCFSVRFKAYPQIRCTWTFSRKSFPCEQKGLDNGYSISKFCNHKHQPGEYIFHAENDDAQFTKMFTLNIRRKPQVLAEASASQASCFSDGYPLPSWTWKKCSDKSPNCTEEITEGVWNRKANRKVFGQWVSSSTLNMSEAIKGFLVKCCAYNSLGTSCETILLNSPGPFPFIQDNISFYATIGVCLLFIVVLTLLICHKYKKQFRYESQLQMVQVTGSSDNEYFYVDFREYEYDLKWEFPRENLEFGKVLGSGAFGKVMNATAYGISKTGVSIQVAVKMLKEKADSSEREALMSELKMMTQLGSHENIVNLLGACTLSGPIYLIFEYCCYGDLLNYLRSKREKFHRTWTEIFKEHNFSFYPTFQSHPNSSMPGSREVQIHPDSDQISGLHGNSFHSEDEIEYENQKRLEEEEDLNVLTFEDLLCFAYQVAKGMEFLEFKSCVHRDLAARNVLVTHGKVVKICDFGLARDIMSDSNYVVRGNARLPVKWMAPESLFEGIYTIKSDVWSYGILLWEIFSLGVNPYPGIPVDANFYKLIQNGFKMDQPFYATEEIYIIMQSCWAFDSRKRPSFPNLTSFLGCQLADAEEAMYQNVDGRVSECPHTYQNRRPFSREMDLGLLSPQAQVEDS

[3] = RET fusion-positive NSCLC, ≥450 mg q.d.

Compound: COc1cc2c(Nc3ccc(Br)cc3F)ncnc2cc1OCCCCN(C)C.Cl.Cl [HA121-28, N-(4-bromo-2-fluorophenyl)-7-(4-(dimethylamino)butoxy)-6-methoxy quinazolin-4-amine dihydrochloride]
- tumor response ([1]; 73 patients with non-RET fusion tumors, phase 1 dose expansion): no response
- confirmed ORR (investigator-assessed) ([1]; 97 RET fusion-positive NSCLC patients, ≥450 mg q.d.): 26.8%
- Best response: Complete response ([1]; All (N=97)): 0 No. (%)
- Best response: Not evaluable ([1]; All (N=97)): 4 (4.1) No. (%)
- Best response: Partial response ([1]; All (N=97)): 26 (26.8) No. (%)
- Best response: Progressive disease ([1]; All (N=97)): 23 (23.7) No. (%)
- Best response: Stable disease ([1]; All (N=97)): 44 (45.4) No. (%)
- Best response: Complete response ([1]; CCDC6 (N=15)): 0 No. (%)
- Best response: Not evaluable ([1]; CCDC6 (N=15)): 1 (6.7) No. (%)
- Best response: Partial response ([1]; CCDC6 (N=15)): 7 (46.7) No. (%)
- Best response: Progressive disease ([1]; CCDC6 (N=15)): 1 (6.7) No. (%)
- Best response: Stable disease ([1]; CCDC6 (N=15)): 6 (40.0) No. (%)
- confirmed ORR ([1]; CCDC6-RET fusion patients): 46.7%
- median DOR ([1]; CCDC6-RET fusion patients): 14.0 months
- median PFS ([1]; CCDC6-RET fusion patients): 14.9 months
- Best response: Complete response ([1]; KIF5B (N=71)): 0 No. (%)
- Best response: Not evaluable ([1]; KIF5B (N=71)): 2 (2.8) No. (%)
- Best response: Partial response ([1]; KIF5B (N=71)): 18 (25.4) No. (%)
- Best response: Progressive disease ([1]; KIF5B (N=71)): 21 (29.6) No. (%)
- Best response: Stable disease ([1]; KIF5B (N=71)): 30 (42.3) No. (%)
- confirmed ORR ([1]; KIF5B-RET fusion patients): 25.4%
- median DOR ([1]; KIF5B-RET fusion patients): 7.7 months
- median PFS ([1]; KIF5B-RET fusion patients): 5.5 months
- Best response: Complete response ([1]; Other (N=11)): 0 No. (%)
- Best response: Not evaluable ([1]; Other (N=11)): 1 (9.1) No. (%)
- Best response: Partial response ([1]; Other (N=11)): 1 (9.1) No. (%)
- Best response: Progressive disease ([1]; Other (N=11)): 1 (9.1) No. (%)
- Best response: Stable disease ([1]; Other (N=11)): 8 (72.7) No. (%)
- patients with shrinkage in tumor size ([1]; RET fusion-positive NSCLC (66 of 97)): 68.0%
- DCR [1, 3]: 72.2%
- median PFS [1, 3]: 5.5 months
- patients with partial response ([1]; TP53 wild-type group (5 out of 15)): 33.3%
- patients with partial response ([1]; concurrent TP53 mutation (1 out of 11)): 9.1%
- PFS ([1]; SD, dosing 176 days): 5.52 months
- PFS ([1]; confirmed PR, dosing 167 days): 5.36 months
- patients with partial response ([1]; phase 1, advanced RET fusion NSCLC with at least one efficacy evaluation, as of April 28, 2021): 7 of 17
- ORR ([1]; subgroup ECOG PS of 0): 35.5%
- ORR ([1]; subgroup age < 60): 30.9%
- ORR ([1]; subgroup with liver metastasis): 37.5%
- IC50 (HT29 cells): 5.4 ± 0.813 µM
- IC50 (BEL-7402 cells; read-out: IC50): 10 to 100 µM
- IC50 (BEL-7402 cells; read-out: IC50, proliferation): 9.91 ± 0.202 µM
- IC50 (MDA-MB-231 cells; read-out: IC50): 10 to 100 µM
- IC50 (MDA-MB-231 cells; read-out: IC50, proliferation): 10.3 ± 2.01 µM
- rat arterial ring angiogenesis [2]: able to inhibit
- plasma protein binding rate (Plasma protein binding): 97.2±0.266%
- IC50 (FLT3): 0.556 µM
